Columns and labels:
[1] = Determination of cooling effect: drop in temperature on dissolving sweetener powder in distilled water at 37° C.; format: physicochemical; conditions: cooling effect of sweeteners, tested in duplicate, mean
Procedure: 150 g of sweetener powder was dissolved in 50 ml of distilled water at 37° C. with stirring. The drop in temperature was measured after 20 seconds than a further 50 ml of distilled water added and the temperature measured after a further 20 seconds. This step was repeated […] to a total volume of water of 200 ml. All samples were tested in duplicate and the result derived from the mean of the values obtained. The repeated addition of water was intended to mimic the conditions in the mouth, where more saliva would be produced as chewing of the comestible progresses. As a result, the cooling effect is indicative of the cooling effect that would be observed in the mouth upon dissolution of the sweetener during consumption.

[2] = test system: panel of 10-12 trained assessors; experiment: Determination of salivation effect: Quantitative Descriptive Analysis, Time-Intensity measurement of salivating mouthfeel; format: in vivo; conditions: for Increase Angle (°) / Time to Maximum Salivatory Effect / Area under Curve / Intensity at Maximum: salivating effect, chewy confectionary with 46.0 wt % test sweetener, 90 second test period, mean of at least 13 repetitions; for Area under Curve / Intensity at Maximum: relative values
Text: (§1) Quantitative Descriptive Analysis was used to determine the salivation effect of the invention. Seven samples of confectionary were tasted by a panel of 10-12 trained assessors using the technique of Time-Intensity measurement. The samples differed only in the sweetener component of the product.
(§2) This technique involves the testing of the confectionary sample in a sensory booth. The booth contained a computer equipped with software which allowed the panellist to record the perceived level of the mouth-watering sensation with time. Each assessor measured the perceived intensity of salivating mouthfeel at 1 second intervals over a time period of 90 seconds for each sample. This was achieved by initiating a timer within the software as the sample was placed in the mouth. Over the subsequent 90 second period the position of a marker on a linear slide scale was adjusted according to the perceived level of salivation. The data thus obtained was then processed to produce an analysis curve (intensity of effect versus time). The assessment was repeated multiple times (multiple assessors were used and at least three repetitions per assessor) and the result derived from the mean of the values obtained. The parameters determined were as follows: • Time to maximum salivatory effect, the time taken in seconds for the sample to reach its maximum intensity, a short time being indicative of the desired rapid inception of mouth-watering; • Intensity of salivation at maximum, the highest point in the curve as recorded by each assessor, a high intensity being generally preferred; • Area under the analysis curve, the larger this area the greater the total salivation over the 90 second test period; and • Increase angle, the angle in degrees of ascent from the first recorded value to the maximum intensity, a greater increase angle on the curve illustrates which samples have the greatest increase in salivation per unit time.
A series of tests were carried out to determine the mouth-watering effect and cooling effect derived from each of a range of sweeteners. The sweeteners tested were sugar (sucrose), erythritol, isomaltulose, trehalose, galactose, dextrose monohydrate and xylitol. Conventional methods were used to prepare this candy chew.

[3] = test system: panel of 10-12 trained assessors; experiment: Quantitative Descriptive Analysis of cooling effect (temperature decrease in the nose and mouth); format: in vivo; conditions: mean of at least 10 repetitions; for Increase Angle (°) / Area under Curve / Intensity at Maximum: cooling effect; for Area under Curve / Intensity at Maximum: relative values; for Time to maximum cooling effect: table of cooling effect parameters
Text: as §1, §2
In addition, the Quantitative Descriptive Analysis as described above with regard to the evaluation of salivation was applied to determine the time to maximum cooling effect, the intensity of cooling at maximum, the area under the analysis curve and the increase angle. Cooling was assessed in terms of the temperature decrease in the nose and mouth, at the time of drawing air into the mouth. As with the determination of salivation using this technique, for effective cooling, a larger value is desirable for all parameters except the time to maximum cooling.

[4] = Studies by the applicant on galactose in sports drinks; format: in vivo; conditions: compared with glucose

SMILES | Magnitude of reduction in temperature at T = 90 seconds (° C.) [1] [°C] | Increase Angle (°) [2] [°] | Time to Maximum Salivatory Effect [2] [s] | Area under Curve [2] | Intensity at Maximum [2] | Increase Angle (°) [3] [°] | Area under Curve [3] | Intensity at Maximum [3] | Time to maximum cooling effect [3] [s] | mouth-watering effect relative to that observed through the use of sugar ([2]; at the 90 second interval, FIG. 1) | incidence of hypoglycaemia [4] | overall sporting performance [4]
OC[C@@H](O)[C@@H](O[C@H]1O[C@H](CO)[C@@H](O)[C@H](O)[C@H]1O)[C@H](O)[C@@H](O)CO [Maltitol] | 16.5 | – | – | – | – | – | – | – | – | – | – | –
OC[C@@H](O)[C@H](O)[C@@H](O)CO [Xylitol, xylitol] | 26.0 | 39.3 | 70.3 | 2874 | 53.1 | 46 | 2457 | 44.7 | 64.5 | – | – | –
OC[C@H]1O[C@@](CO)(O[C@H]2O[C@H](CO)[C@@H](O)[C@H](O)[C@H]2O)[C@@H](O)[C@@H]1O [Sugar, sucrose] | 13.5 | 35.1 | 58.9 | 1673 | 28.6 | – | – | – | – | – | – | –
OC[C@H]1O[C@H](OC[C@H]2OC(O)(CO)[C@@H](O)[C@@H]2O)[C@H](O)[C@@H](O)[C@@H]1O (some centres unmarked) [Isomaltulose, isomaltulose] | – | 31.1 | 65.7 | 1898 | 34.3 | – | – | – | – | – | – | –
OC[C@@H](O)[C@@H](O)CO [Erythritol, erythritol] | – | 51.8 | 64.8 | 4079 | 73 | 81.5 | 3431 | 59.9 | 63.5 | – | – | –
O.O=C[C@H](O)[C@@H](O)[C@H](O)[C@H](O)CO [Dextrose Monohydrate, dextrose monohydrate] | 14.5 | 38 | 76.7 | 2306 | 52.1 | 36.5 | 663 | 24 | 81.9 | – | – | –
O=C[C@H](O)[C@@H](O)[C@@H](O)[C@H](O)CO [Galactose, galactose] | 11.0 | 51.5 | 62 | 3561 | 64.9 | 39.3 | 725 | 14.6 | 57.1 | approximately 2.5 times | lower | increased
OC[C@@H](O)[C@@H](O)[C@H](O)[C@H](O)CO [Mannitol] | 13.0 | – | – | – | – | – | – | – | – | – | – | –
OC[C@H]1O[C@H](O[C@H]2O[C@H](CO)[C@@H](O)[C@H](O)[C@H]2O)[C@H](O)[C@@H](O)[C@@H]1O [Trehalose, trehalose] | – | 35.3 | 66.5 | 2253 | 43 | – | – | – | – | – | – | –
